This is an account of results in ChEMBL document CHEMBL1759919, “1α,25-Dihydroxyvitamin D3-3β-bromoacetate, a potential cancer therapeutic agent: synthesis and molecular mechanism of action” (Bioorg Med Chem Lett, 2011).

What all share (type): functional, cell-based
For assay [1], the system named is A498. As to the kind of experiment: Induction of CYP24 mRNA expression in human A498 cells at 10^-6 M after 24 hrs by RT-PCR analysis.
Assay [2] deals with A498. As to the kind of experiment: Induction of CYP24 mRNA expression in human A498 cells at 10^-8 M after 16 hrs by RT-PCR analysis.
In assay [3] the test system is A498. Kind of assay: Induction of CYP24 mRNA expression in human A498 cells at 10^-8 M after 4 hrs by RT-PCR analysis.

Active and inactive are the calls of the source. The calls are words filed in the database; no cut-off is given here.

In the case of `C=C1/C(=C\C=C2/CCC[C@]3(C)[C@@H]([C@H](C)CCCC(C)(C)O)CC[C@@H]23)C[C@@H](OC(=O)CBr)C[C@@H]1O`, the result with A498 [1] and in the assay on A498 [2] was Active.

As for `C=C1/C(=C\C=C2/CCC[C@]3(C)[C@@H]([C@H](C)CCCC(C)(C)O)CC[C@@H]23)C[C@@H](O)C[C@@H]1O`, the result with A498 [3] and in the assay on A498 [2] was Active.
